Measured values published in US20240199605A1, “SMALL MOLECULAR INHIBITORS OF NF-kB INDUCING KINASE” (Janssen Pharmaceutica NV, priority 2019, published 2024).

Experiments:
[1] = target: recombinant human NF-kappaB-inducing kinase (NIK/MAP3K14) (Homo sapiens (Human), UniProt Q99558); assay: Inhibition of auto-phosphorylation of recombinant human NIK/MAP3K14 (AlphaScreen); type: biochemical; conditions: NIK auto-phosphorylation, 5 μM ATP, 1 nM NIK, 2 h at 25° C.; average of values
How it was run: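 GST-tagged NIK (1 nM) auto-phosphorylated with 5 μM ATP for 2 h at 25° C. in 50 mM Tris pH 7.5, 5 mM MgCl2, 1 mM EGTA, 1 mM DTT, 0.1 mM Na3VO4, 0.01% Tween 20 (0.7% DMSO). Detected by AlphaScreen via anti-phospho-IKK Ser176/180 antibody; IC50 from sigmoidal fit of % inhibition versus log concentration.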

[2] = system: p-IKKα levels in L363 (NIK translocated multiple myeloma) cells; assay: Effect of compounds on p-IKKα levels in L363 cells (AlphaLISA SureFire Ultra); type: cell-based, human; conditions: Homo sapiens, L-363, 6 h, BAFF stimulated, MG132, 6 h, average of values, read-out: Assay 2 IC50
How it was run: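 Inhibition of p-IKKα (Ser176/180) read by AlphaLISA after 6 h, 37 °C compound exposure (11-point 1:3 series, 0.3% DMSO) of L363 cells pre-incubated overnight ± 250 ng/ml BAFF and plated ± BAFF ± 10 μM MG132. Normalised to BAFF/MG132/DMSO and unstimulated controls; IC50 by sigmoidal fitting, duplicates.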

Sequence of recombinant human NF-kappaB-inducing kinase (NIK/MAP3K14) (Q99558 whole entry): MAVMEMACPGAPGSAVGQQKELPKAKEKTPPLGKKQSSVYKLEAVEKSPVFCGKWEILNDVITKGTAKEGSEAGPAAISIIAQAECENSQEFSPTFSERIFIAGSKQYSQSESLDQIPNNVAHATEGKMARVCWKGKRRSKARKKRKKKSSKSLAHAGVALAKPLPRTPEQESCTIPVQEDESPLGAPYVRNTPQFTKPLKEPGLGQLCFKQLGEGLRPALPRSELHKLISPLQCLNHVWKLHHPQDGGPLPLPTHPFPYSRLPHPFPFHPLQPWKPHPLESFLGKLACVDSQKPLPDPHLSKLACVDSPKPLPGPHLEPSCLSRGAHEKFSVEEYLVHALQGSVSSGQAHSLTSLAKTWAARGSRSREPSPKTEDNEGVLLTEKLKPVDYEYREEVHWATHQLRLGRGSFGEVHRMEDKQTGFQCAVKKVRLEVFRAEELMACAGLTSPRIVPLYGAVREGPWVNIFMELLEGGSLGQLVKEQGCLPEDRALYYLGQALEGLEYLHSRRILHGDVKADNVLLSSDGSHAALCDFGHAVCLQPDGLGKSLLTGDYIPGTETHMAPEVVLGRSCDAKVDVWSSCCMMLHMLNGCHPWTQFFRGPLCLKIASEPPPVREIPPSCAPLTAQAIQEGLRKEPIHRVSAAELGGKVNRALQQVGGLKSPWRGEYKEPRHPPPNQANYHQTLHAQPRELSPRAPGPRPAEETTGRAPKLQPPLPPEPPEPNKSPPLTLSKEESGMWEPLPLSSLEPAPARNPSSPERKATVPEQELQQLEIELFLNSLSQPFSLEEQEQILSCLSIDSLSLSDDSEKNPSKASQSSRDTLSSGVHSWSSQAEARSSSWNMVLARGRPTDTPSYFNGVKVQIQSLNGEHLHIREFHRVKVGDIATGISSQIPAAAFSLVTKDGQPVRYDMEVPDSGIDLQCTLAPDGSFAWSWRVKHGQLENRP

| SMILES | IC50 [1] [nM] | IC50 [2] [nM] |
| --- | --- | --- |
| Cc1nc(N)c2nc(-c3cccc(C#C[C@](C)(O)c4cnc(C)s4)c3)ccc2n1 [Example 157, (S)-4-(3-(4-Amino-2-methylpyrido[3,2-d]pyrimidin-6-yl)phenyl)-2-(2-methylthiazol-5-yl)but-3-yn-2-ol] | 3790 | > 5000 |
| Cc1ccc(C#CC2(O)CCCC2)cc1-c1nc2c(N)ncnc2s1 [Example 185, 1-[2-[3-(7-Aminothiazolo[5,4-d]pyrimidin-2-yl)-4-methyl-phenyl]ethynyl]cyclopentanol] | 11 | 1520 |
| Cc1nc(N)c2nc(-c3cccc(C#C[C@@](C)(O)c4ncc(C)s4)c3)ccc2n1 [Example 167, (R)-4-(3-(4-Amino-2-methylpyrido[3,2-d]pyrimidin-6-yl)phenyl)-2-(5-methylthiazol-2-yl)but-3-yn-2-ol] | 12 | 3470 |
| CN1CC[C@](O)(C#Cc2cccc(-c3ncc4cc[nH]c(=O)c4n3)c2)C1=O [Example 31, (S)-2-[3-[2-(3-Hydroxy-1-methyl-2-oxo-pyrrolidin-3-yl)ethynyl]phenyl]-7H-pyrido[3,4-d]pyrimidin-8-one] | 23 | 550 |
| CN(C)Cc1cnc(N)c2nc(-c3cccc(C#C[C@]4(O)CCN(C)C4=O)c3)ncc12 [Example 135, (R)-3-[2-[3-[8-Amino-5-(dimethylaminomethyl)pyrido[3,4-d]pyrimidin-2-yl]phenyl]ethynyl]-3-hydroxy-1-methyl-pyrrolidin-2-one] | 5.7 | 140 |
| Cc1ncc(Br)c2ccc(-c3cccc(C#C[C@]4(O)CCN(C)C4=O)c3)nc12 [Example 249, (R)-3-((3-(5-Bromo-8-methyl-1,7-naphthyridin-2-yl)phenyl)ethynyl)-3-hydroxy-1-methylpyrrolidin-2-one] | 7.3 | 470 |
| CN1CC[C@@](O)(C#Cc2cccc(-c3ncc4ccnc(N5CCC5)c4n3)c2)C1=O [Example 247, (R)-3-((3-(8-(Azetidin-1-yl)pyrido[3,4-d]pyrimidin-2-yl)phenyl)ethynyl)-3-hydroxy-1-methylpyrrolidin-2-one] | 850 | > 5000 |
| CN1CC[C@@](O)(C#Cc2cccc(-c3ccc4ncnc(N5CC(S(C)(=O)=O)C5)c4n3)c2)C1=O [Example 245, (R)-3-Hydroxy-1-methyl-3-((3-(4-(3-(methylsulfonyl)azetidin-1-yl)pyrido[3,2-d]pyrimidin-6-yl)phenyl)ethynyl)pyrrolidin-2-one] | 40 | 1190 |
| CN1CC[C@](O)(C#Cc2cccc(-c3ccc4ncnc(N5CCC5)c4n3)c2)C1=O [Example 231, (S)-3-((3-(4-(Azetidin-1-yl)pyrido[3,2-d]pyrimidin-6-yl)phenyl)ethynyl)-3-hydroxy-1-methylpyrrolidin-2-one] | 340 | > 5000 |
| CC(C)(O)C#Cc1cccc(-c2ncc3ccnc(N)c3n2)c1 [Example 35, 4-[3-(8-Aminopyrido[3,4-d]pyrimidin-2-yl)phenyl]-2-methyl-but-3-yn-2-ol] | 15 | 700 |
| Cc1nc(N)c2nc(-c3cccc(C#C[C@@]4(O)CCCN(C)C4=O)c3)ccc2n1 [Example 186, (S)-3-((3-(4-Amino-2-methylpyrido[3,2-d]pyrimidin-6-yl)phenyl)ethynyl)-3-hydroxy-1-methylpiperidin-2-one] | 710 | > 5000 |
| [2H]c1nc(N)c2nc(-c3cccc(C#C[C@]4(O)CCN(C)C4=O)c3)nc(C)c2n1 [Example 168, (R)-3-((3-(8-Amino-4-methylpyrimido[5,4-d]pyrimidin-2-yl-6-d)phenyl)ethynyl)-3-hydroxy-1-methylpyrrolidin-2-one] | 2.2 | 4.2 |
| CN1CC[C@@](O)(C#Cc2cccc(-c3ccc4ncnc(NC5COC5)c4n3)c2)C1=O [Example 229, (R)-3-Hydroxy-1-methyl-3-((3-(4-(oxetan-3-ylamino)pyrido[3,2-d]pyrimidin-6-yl)phenyl)ethynyl)pyrrolidin-2-one] | 110 | 1910 |
| [2H]c1nc(N)c2nc(-c3cc(C#C[C@]4(O)CCN(C)C4=O)ccc3OC(F)(F)F)ccc2n1 [Example 29, (R)-3-((3-(4-aminopyrido[3,2-d]pyrimidin-6-yl-2-d)-4-(trifluoromethoxy)phenyl)ethynyl)-3-hydroxy-1-methylpyrrolidin-2-one] | 4.1 | 45 |

Now those with a lower IC50 [1], led by results:

| IC50 [1] [nM] | IC50 [2] [nM] | SMILES |
| --- | --- | --- |
| 1.2 | 39 | CN1CC[C@@](O)(C#Cc2cccc(-c3cc(N4CC(F)(F)C4)c4ncnc(N)c4n3)c2)C1=O [Example 300, (R)-3-[2-[3-[4-Amino-8-(3,3-difluoroazetidin-1-yl)pyrido[3,2-d]pyrimidin-6-yl]phenyl]ethynyl]-3-hydroxy-1-methyl-pyrrolidin-2-one] |
| ≤ 0.5 | 6.1 | CN1CC[C@@](O)(C#Cc2cccc(-c3ncc4c(C#N)cnc(N)c4n3)c2)C1=O [Example 100, (R)-8-Amino-2-(3-((3-hydroxy-1-methyl-2-oxopyrrolidin-3-yl)ethynyl)phenyl)pyrido[3,4-d]pyrimidine-5-carbonitrile] |
| ≤ 0.5 | 17 | Nc1nccc2ccc(-c3cccc(C#CC4(O)CCn5ccnc54)c3)nc12 (stereo in doubt) [Example 91, (R)-7-[2-[3-(8-Amino-1,7-naphthyridin-2-yl)phenyl]ethynyl]-5,6-dihydropyrrolo[1,2-a]imidazol-7-ol] |
| ≤ 0.5 | 42 | CN1CC[C@@](O)(C#Cc2cccc(-c3cc(C(F)(F)F)c4ncnc(N)c4c3)c2)C1=O [Example 115, (R)-3-((3-(4-Amino-8-(trifluoromethyl)quinazolin-6-yl)phenyl)ethynyl)-3-hydroxy-1-methylpyrrolidin-2-one] |
| 1.5 | 38 | CC(C)c1nc(-c2cccc(C#C[C@]3(O)CCN(C)C3=O)c2)nc2c(N)nccc12 [Example 98, (R)-3-((3-(8-Amino-4-isopropylpyrido[3,4-d]pyrimidin-2-yl)phenyl)ethynyl)-3-hydroxy-1-methylpyrrolidin-2-one] |
| ≤ 0.5 | 6.1 | Nc1ncnc2cnc(-c3cccc(C#C[C@@]4(O)CCc5cccnc54)c3)nc12 [Example 155, (S)-7-((3-(8-Aminopyrimido[5,4-d]pyrimidin-2-yl)phenyl)ethynyl)-6,7-dihydro-5H-cyclopenta[b]pyridin-7-ol] |
| 1.4 | 370 | Cc1nc(N)c2nc(-c3cccc(C#C[C@]4(O)CCN(C)C4=O)c3)cnc2n1 [Example 148, (R)-3-[2-[3-(4-Amino-2-methyl-pteridin-6-yl)phenyl]ethynyl]-3-hydroxy-1-methyl-pyrrolidin-2-one] |
| ≤ 0.5 | 5.5 | Cc1nc(-c2cccc(C#C[C@]3(O)CCn4ccnc43)c2)nc2c(N)nccc12 [Example 84, (R)-7-((3-(8-Amino-4-methylpyrido[3,4-d]pyrimidin-2-yl)phenyl)ethynyl)-6,7-dihydro-5H-pyrrolo[1,2-a]imidazol-7-ol] |
| 0.9 | 820 | CN1CC[C@@](O)(C#Cc2cccc(-c3cc(C#N)c4ncnc(N)c4c3)c2)C1=O [Example 126, (R)-4-Amino-6-(3-((3-hydroxy-1-methyl-2-oxopyrrolidin-3-yl)ethynyl)phenyl)quinazoline-8-carbonitrile] |
| 0.8 | 45 | CCc1nc(N)c2nc(-c3cccc(C#C[C@]4(O)CCN(C)C4=O)c3)ccc2n1 [Example 210, (R)-3-((3-(4-Amino-2-ethylpyrido[3,2-d]pyrimidin-6-yl)phenyl)ethynyl)-3-hydroxy-1-methylpyrrolidin-2-one] |
| ≤ 0.5 | 2.3 | CN1CC[C@@](O)(C#Cc2cccc(-c3ncc4c(-c5cnn(C)c5)cnc(N)c4n3)c2)C1=O [Example 122, (R)-3-[2-[3-[8-Amino-5-(1-methylpyrazol-4-yl)pyrido[3,4-d]pyrimidin-2-yl]phenyl]ethynyl]-3-hydroxy-1-methyl-pyrrolidin-2-one] |
| ≤ 0.5 | 6.6 | Cc1ccc(C#C[C@]2(O)CCn3ccnc32)cc1-c1nc2c(N)ncnc2s1 [Example 183, (R)-7-[2-[3-(7-Aminothiazolo[5,4-d]pyrimidin-2-yl)-4-methyl-phenyl]ethynyl]-5,6-dihydropyrrolo[1,2-a]imidazol-7-ol] |
| 0.7 | 2.8 | CN1CC[C@@](O)(C#Cc2cccc(-c3cc(C(F)(F)F)c4ncnc(N)c4n3)c2)C1=O [Example 284, (R)-3-((3-(4-Amino-8-(trifluoromethyl)pyrido[3,2-d]pyrimidin-6-yl)phenyl)ethynyl)-3-hydroxy-1-methylpyrrolidin-2-one] |
| 1.9 | 31 | CC(C)Nc1cc(-c2cccc(C#C[C@]3(O)CCN(C)C3=O)c2)nc2c(N)ncnc12 [Example 297, (R)-3-[2-[3-[4-Amino-8-(isopropylamino)pyrido[3,2-d]pyrimidin-6-yl]phenyl]ethynyl]-3-hydroxy-1-methyl-pyrrolidin-2-one] |
| 0.7 | 60 | Cc1nc(-c2cccc(C#C[C@]3(O)CCN(C)C3=O)c2)cc2c(N)ncnc12 [Example 136, (R)-3-[2-[3-(4-Amino-8-methyl-pyrido[3,4-d]pyrimidin-6-yl)phenyl]ethynyl]-3-hydroxy-1-methyl-pyrrolidin-2-one] |
